Test results published in the NIST ThermoML archive (doi:10.1016/j.jct.2008.01.012).
± gives the expanded uncertainty stated by the source.

Columns and labels:
[1] = Liquid, Diaphragm manometer
[2] = excess molar enthalpy (molar enthalpy of mixing); xn = mol fraction of the nth substance listed; conditions: 303.15 K, 101 kPa, Liquid, Calvet calorimetry

CCN(CC)CCCN [N,N-diethylpropane-1,3-diamine]
vapor or sublimation pressure ([1]; 303.15 K): 0.31 ± 0.014 kPa
vapor or sublimation pressure ([1]; 313.15 K): 0.586 ± 0.026 kPa
vapor or sublimation pressure ([1]; 323.15 K): 1.053 ± 0.046 kPa
vapor or sublimation pressure ([1]; 333.15 K): 1.809 ± 0.079 kPa
vapor or sublimation pressure ([1]; 343.15 K): 2.987 ± 0.13 kPa

CCN(CC)CCCN [N,N-diethylpropane-1,3-diamine] + CCCCCC
excess molar enthalpy ([2]; x1 = 0.0798): 0.107 ± 0.0043 kcal/mol
excess molar enthalpy ([2]; x1 = 0.1311): 0.152 ± 0.00621 kcal/mol
excess molar enthalpy ([2]; x1 = 0.212): 0.202 ± 0.00813 kcal/mol
excess molar enthalpy ([2]; x1 = 0.2521): 0.215 ± 0.00884 kcal/mol
excess molar enthalpy ([2]; x1 = 0.3083): 0.232 ± 0.00956 kcal/mol
excess molar enthalpy ([2]; x1 = 0.3089): 0.232 ± 0.00956 kcal/mol
excess molar enthalpy ([2]; x1 = 0.3472): 0.239 ± 0.0098 kcal/mol
excess molar enthalpy ([2]; x1 = 0.3858): 0.24 ± 0.0098 kcal/mol
excess molar enthalpy ([2]; x1 = 0.4188): 0.241 ± 0.0098 kcal/mol
excess molar enthalpy ([2]; x1 = 0.4682): 0.241 ± 0.0098 kcal/mol
excess molar enthalpy ([2]; x1 = 0.4835): 0.241 ± 0.0098 kcal/mol
excess molar enthalpy ([2]; x1 = 0.5079): 0.239 ± 0.0098 kcal/mol
excess molar enthalpy ([2]; x1 = 0.5984): 0.229 ± 0.00932 kcal/mol
excess molar enthalpy ([2]; x1 = 0.7107): 0.194 ± 0.00789 kcal/mol
excess molar enthalpy ([2]; x1 = 0.802): 0.146 ± 0.00598 kcal/mol
excess molar enthalpy ([2]; x1 = 0.8762): 0.0978 ± 0.00406 kcal/mol

CCCCCCC [heptane]
vapor or sublimation pressure ([1]; 303.15 K): 7.786 ± 0.34 kPa
vapor or sublimation pressure ([1]; 313.15 K): 12.32 ± 0.54 kPa
vapor or sublimation pressure ([1]; 323.15 K): 18.85 ± 0.82 kPa
vapor or sublimation pressure ([1]; 333.15 K): 27.98 ± 1.2 kPa
vapor or sublimation pressure ([1]; 343.15 K): 40.43 ± 1.8 kPa

CCN(CC)CCCN [N,N-diethylpropane-1,3-diamine] + CCCCCCC
excess molar enthalpy ([2]; x1 = 0.0503): 0.0645 ± 0.00263 kcal/mol
excess molar enthalpy ([2]; x1 = 0.1038): 0.121 ± 0.00502 kcal/mol
excess molar enthalpy ([2]; x1 = 0.1491): 0.16 ± 0.00645 kcal/mol
excess molar enthalpy ([2]; x1 = 0.2452): 0.217 ± 0.00884 kcal/mol
excess molar enthalpy ([2]; x1 = 0.3961): 0.255 ± 0.0103 kcal/mol
excess molar enthalpy ([2]; x1 = 0.4516): 0.258 ± 0.0105 kcal/mol
excess molar enthalpy ([2]; x1 = 0.5013): 0.255 ± 0.0105 kcal/mol
excess molar enthalpy ([2]; x1 = 0.5973): 0.235 ± 0.00956 kcal/mol
excess molar enthalpy ([2]; x1 = 0.7014): 0.199 ± 0.00813 kcal/mol
excess molar enthalpy ([2]; x1 = 0.7987): 0.149 ± 0.00598 kcal/mol
excess molar enthalpy ([2]; x1 = 0.8974): 0.0834 ± 0.00335 kcal/mol

CCN(CC)CCCN [N,N-diethylpropane-1,3-diamine] + CCCCCCCCCCCC
excess molar enthalpy ([2]; x1 = 0.0601): 0.0915 ± 0.00382 kcal/mol
excess molar enthalpy ([2]; x1 = 0.1207): 0.161 ± 0.00645 kcal/mol
excess molar enthalpy ([2]; x1 = 0.2122): 0.242 ± 0.0098 kcal/mol
excess molar enthalpy ([2]; x1 = 0.3099): 0.298 ± 0.0122 kcal/mol
excess molar enthalpy ([2]; x1 = 0.4093): 0.325 ± 0.0131 kcal/mol
excess molar enthalpy ([2]; x1 = 0.4522): 0.328 ± 0.0134 kcal/mol
excess molar enthalpy ([2]; x1 = 0.5054): 0.327 ± 0.0134 kcal/mol
excess molar enthalpy ([2]; x1 = 0.6037): 0.312 ± 0.0127 kcal/mol
excess molar enthalpy ([2]; x1 = 0.71): 0.267 ± 0.011 kcal/mol
excess molar enthalpy ([2]; x1 = 0.8047): 0.207 ± 0.00837 kcal/mol
excess molar enthalpy ([2]; x1 = 0.9021): 0.119 ± 0.00478 kcal/mol
excess molar enthalpy ([2]; x1 = 0.9498): 0.0648 ± 0.00263 kcal/mol
